These results are taken from patent US8603493B2, “Carbosilane dendrimers, preparation method thereof and use of same” (Dendrico, S.L., priority 2005, dated 2013).

The structures appear in SMILES notation.

The target of data set [1] is T1, Insulin (recombinant human insulin) (Homo sapiens, UniProt P01308).
T1 construct: Despite having its molecular weight (5825 g/mol) and establishing an average of 4 (−) charges; purchased Novo Nordisk Actrapid (trade name; no catalogue number given)
Put plainly: pH stability test of IM16 dendrimer-insulin complexes. Format: physicochemical. Particulars: 0.5 U insulin; pH 5, 6, 7.4, 9, 10; 15 minutes. The protocol: The test on the behaviour of the dendrimer-drug complexes previously formed on varying the medium's pH was again performed by evaluating the delay in polyacrylamide gel of the dendrimer bound to the drug with respect to free dendrimer, following a process similar to that used in the tests to determine the dendrimer-drug bond, although introducing a stage of variation of pH in the complex formation process of prior to electrophoresis, process that was performed in the following way: • Complex formation: It was performed in a final mixture volume of 30 μl, which is the maximum volume for loading in the gel. To do this, we started from the necessary quantity of dendrimer which provides a band perfectly identifiable by staining with silver nitrate in the gel once the electrophoresis has been performed: 20 μl of a 100 μM solution, which correspond to 1.2×10^15 molecules. […] An incubation was performed of the dendrimer and drug mixtures at 37° C. during 1 hour to give time for a more thermodynamically stable complex to form, although more time may be needed for its formation. For each pH to test, 2 mixtures were incubated. […]

Data set [2] relates to U87-MG cells. Put plainly: Toxicity in U-87-MG cells: tests with MTT. The protocol: A test with U-87-MG cells was performed, wherein the effect of the dendrimers on the viability of said lines was studied at different times. To do this, 15000 (24 hour incubations), 7000 (3 day incubations) or 1500 (7 day incubations) cells per well were plated in 96-well plates. The cells were incubated with different concentrations (1 μM, 5 μM and 10 μM) either NN dendrimer or NN16 dendrimer, during 24 hours, 3 days and 7 days. […] Two different positive controls were also used: cells treated with 7% DMSO and cells treated with 1% Triton X-100.
In the case of Superfect, three doses were tested, the optimum dose recommended by the manufacturer (2.5 μl), a lower dose (1.25 μl) and another higher dose (5 μl). With regard to Polyfect, specifically designed for adherent cells, the three doses tested were: optimum dose (0.6 μl), lower dose (0.3 μl) and higher dose (1.2 μl).
After each corresponding incubation time, a test was performed with MTT analogous to that described in Example 38. At the absorbance value obtained in the untreated cells (C−) it was given the value of 1 and the moiety of the absorbencies produced was used to refer to it.

In data set [3] the test system is U87-MG cells. Put plainly: Transfection of U87-MG cells mediated by dendrimers (flow cytometry). Format: cell-based. Particulars: dendriplex with anti-rev oligonucleotide 250 nM, − charge/+ charge ratio 1:8, 24 hours. The protocol:
100000 cells/well were plated of the corresponding cell line in a 24-well plate with 500 μl of medium.
Dendriplexes were formed with dendrimers NN and NN16 and the fluorescent anti-rev antisense oligonucleotide in a total volume of 75 μl of medium without serum, wherein the anti-rev oligonucleotide was mixed at a concentration 250 nM and the corresponding dendrimer in different proportions, so that different − charge/+ charge ratios were obtained: 1:1, 1:2, 1:4 and 1:8. The mixture was incubated during half an hour at ambient temperature and then it was added to the corresponding well to incubate the cells with dendriplexes.
After 24 hours of incubation, the cells were removed from the well, they were washed twice with PBS, they were incubated for 1 minute with acid glycine to remove the possible moieties of dendriplexes which may have remained adhered on the cell membrane, and a final wash was performed with PBS. Finally, the cells were resuspended in 500 μl of PBS and the quantity of fluorescent oligonucleotide inside the cell was quantified by flow cytometry.

T1 sequence (P01308 25-54 limits assumed): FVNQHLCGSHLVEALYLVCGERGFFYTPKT
T1 sequence (P01308 90-110 limits assumed): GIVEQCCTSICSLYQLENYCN

Take `C[N+](C)(C)CCO[Si](C)(CCC[Si](C)(CCC[Si](CCC[Si](C)(CCC[Si](C)(OCC[N+](C)(C)C)OCC[N+](C)(C)C)CCC[Si](C)(OCC[N+](C)(C)C)OCC[N+](C)(C)C)(CCC[Si](C)(CCC[Si](C)(OCC[N+](C)(C)C)OCC[N+](C)(C)C)CCC[Si](C)(OCC[N+](C)(C)C)OCC[N+](C)(C)C)CCC[Si](C)(CCC[Si](C)(OCC[N+](C)(C)C)OCC[N+](C)(C)C)CCC[Si](C)(OCC[N+](C)(C)C)OCC[N+](C)(C)C)CCC[Si](C)(OCC[N+](C)(C)C)OCC[N+](C)(C)C)OCC[N+](C)(C)C.[I-].[I-].[I-].[I-].[I-].[I-].[I-].[I-].[I-].[I-].[I-].[I-].[I-].[I-].[I-].[I-]` [IM16, 2G-[Si(OCH2CH2NMe3^+I^−)2]8]: the “pH stability of dendrimer-insulin complex” value in data set [1] is “dissociated at acid pH”.
Consider `CN(CCO[Si](C)(C)CCC[Si](C)(CCC[Si](CCC[Si](C)(CCC[Si](C)(C)OCCN(C)CC[N+](C)(C)C)CCC[Si](C)(C)OCCN(C)CC[N+](C)(C)C)(CCC[Si](C)(CCC[Si](C)(C)OCCN(C)CC[N+](C)(C)C)CCC[Si](C)(C)OCCN(C)CC[N+](C)(C)C)CCC[Si](C)(CCC[Si](C)(C)OCCN(C)CC[N+](C)(C)C)CCC[Si](C)(C)OCCN(C)CC[N+](C)(C)C)CCC[Si](C)(C)OCCN(C)CC[N+](C)(C)C)CC[N+](C)(C)C.[I-].[I-].[I-].[I-].[I-].[I-].[I-].[I-]` [NN, 2G-[Si(O(CH2)2N(Me)(CH2)2NMe3^+I^−)]8], for which the “viability (MTT), untreated cells (C−) = 1” value with U87-MG cells [2] is on record as 0.6-0.75. Further, the “percentage of cells transfected” value with U87-MG cells [3] came out at 95%.
